Test results published in patent US7253212B2, “Retinol derivative and cosmetic composition comprising the same” (Coreana Cosmetics Co., Ltd., priority 2002, dated 2007).

What was measured:
Human normal fibroblasts = assay: Effect on collagen biosynthesis (procollagen type C-peptide kit); assay type: cell-based; conditions: 48 hours treatment
Description: Human normal fibroblasts (ATCC) were inoculated (2×10^4 cells/well) on 96-well microplate containing DMEM supplemented with FBS and incubated for 24 hours at 37° C. After incubation, the medium in microplate was replaced with fresh DMEM without serum comprising the derivative of this invention, retinol or ascorbic acid and then additional incubation for 48 hours was carried out. Control was not treated with any of the compounds described above. Following incubation, each well was rinsed, fresh DMEM without serum was supplied and then additional incubation for 24 hours was performed. Then, procollagen type C-peptide obtained from the supernatant of each well was measured using a kit purchased from Takara Co. (Japan) and the measured values were converted to ng/2×10^4 cells, which indicate the amount of collagen newly generated.

[1] = Scavenging effect on free radical (DPPH); conditions: 30 min, absorbance 520 nm
Description: Evaluation of scavenging effect on free radical was performed using DPPH (1,1-diphenyl-2-picryl-hydrazyl, Sigma-Aldrich). 100 μl of each of the substances (the derivative of this invention, retinol and ascorbic acid) diluted to a suitable concentration and 100 μl of 400 μM DPPH solution were consequently added to a 96-well microplate and agitation was performed, followed by reaction for 30 min. at room temperature. Then, absorbance at 520 nm was measured using spectrophotometer. Control contains 100 μl of ethanol in place of the substance to be tested. The scavenging effect on free radical was calculated as following formula: scavenging effect on free radical (%)=100−{(absorbance of sample solution/absorbance of control)×100}

tyrosinase = assay: Inhibitory effect on tyrosinase activity; assay type: biochemical
Description: A tyrosinase used herein was purchased from Sigma (U.S.A.). Tyrosine as substrate was used as a solution (0.1 mg/ml) dissolved in 0.05 M sodium phosphate buffer (pH 6.8).
0.5 ml of tyrosine solution was placed in a test tube and 0.5 ml of sample solution to be evaluated was added. The test tube was allowed to stand in incubator for 10 min. at 37° C. and then 0.5 ml of tyrosinase (200 U/ml) was added. The reaction was carried out for 10 min at 37° C. As a control group, 0.5 ml of buffer solution was added instead of the sample to be evaluated. The reaction was quenched by placing the test tube on ice and the absorbance of the resultant was measured at 475 nm with spectrophotometer. The inhibitory effect on tyrosinase activity was determined by the equation: inhibition rate on tyrosinase activity (%)=100−{(absorbance of sample/absorbance of control)×100}

| Structure (SMILES) | Amount of Collagen Newly Generated (Human normal fibroblasts; addition amount 50 μg) [ng/2 × 10^4 cells] | Amount of Collagen Newly Generated (Human normal fibroblasts; addition amount 100 μg) [ng/2 × 10^4 cells] | Amount of Collagen Newly Generated (Human normal fibroblasts; addition amount 200 μg) [ng/2 × 10^4 cells] | Scavenging effect on free radical (%) ([1]; concentration 0.5 mM) | Scavenging effect on free radical (%) ([1]; concentration 1 mM) | Inhibition rate on tyrosinase activity (%) (tyrosinase; sample conc. 10 μg/ml) | Inhibition rate on tyrosinase activity (%) (tyrosinase; sample conc. 20 μg/ml) | Inhibition rate on tyrosinase activity (%) (tyrosinase; sample conc. 50 μg/ml) | Inhibition rate on tyrosinase activity (%) (tyrosinase; sample conc. 100 μg/ml) | Inhibition rate on tyrosinase activity (%) (tyrosinase; sample conc. 200 μg/ml) | Inhibition rate on tyrosinase activity (%) (tyrosinase; sample conc. 500 μg/ml) |
| --- | --- | --- | --- | --- | --- | --- | --- | --- | --- | --- | --- |
| O=C1O[C@H]([C@@H](O)CO)C(O)=C1O [L-ascorbic acid] | 198 | 267 | 314 | 91.2 | 91.9 | 5.1 | 9.8 | 13.2 | 22.5 | 34.8 | 62.4 |
| CC1=C(/C=C/C(C)=C/C=C/C(C)=C/CO)C(C)(C)CCC1 [Retinol] | 174 | 233 | 286 | 0.4 | 1.6 | 0.6 | 1.1 | 3.2 | 3.9 | 5.6 | 9.2 |
| CC1=C(/C=C/C(C)=C/C=C/C(C)=C/COC(=O)COC2=C(O)C(=O)OC2C(O)CO)C(C)(C)CCC1 (stereo not drawn) [Derivative of this invention] | 215 | 290 | 349 | 95.7 | 96.4 | 8.1 | 10.7 | 13.8 | 32.9 | 47.1 | 78.8 |
